Measurements reported in PubChem BioAssay (NCI).
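In this assay, cells in 96-well plates receive the compound at five concentrations for 48 hours. Endpoints are linearly interpolated between the surrounding concentrations. TGI marks complete inhibition of growth.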

Tests used:
Assay in all cases: DTP human tumour cell line panel, 48 h
[1] = test system: 786-0 renal
[2] = test system: A549 NSCLC
[3] = test system: CAKI-1 renal
[4] = test system: DLD-1 colon
[5] = test system: EKVX NSCLC
[6] = test system: HCT-15 colon
[7] = test system: HT29 colon
[8] = test system: K-562 leukemia
[9] = test system: KM12 colon
[10] = test system: LOX IMVI melanoma
[11] = test system: MALME-3M melanoma
[12] = test system: MOLT-4 leukemia
[13] = test system: RPMI-8226 leukemia
[14] = test system: SR leukemia
[15] = test system: SW-620 colon
[16] = test system: U251 CNS
[17] = test system: UACC-257 melanoma
[18] = test system: UO-31 renal

Row | SMILES | TGI [1] | TGI [2] | TGI [3] | TGI [4] | TGI [5] | TGI [6] | TGI [7] | TGI [8] | TGI [9] | TGI [10] | TGI [11] | TGI [12] | TGI [13] | TGI [14] | TGI [15] | TGI [16] | TGI [17] | TGI [18]
1 | COC(=O)N/N=C(/Cc1occc(=O)c1O)C(=O)Nc1ccc([N+](=O)[O-])cc1[N+](=O)[O-] | > 100 µM | > 100 µM | > 100 µM | > 100 µM | > 100 µM | > 100 µM | > 100 µM | > 100 µM | > 100 µM | > 100 µM | > 100 µM | > 100 µM | > 100 µM | > 100 µM | > 100 µM | > 100 µM | > 100 µM | > 100 µM
2 | CC/C(SC)=[N+](\C)[O-] | > 100 µM | > 100 µM | > 100 µM | > 69 µM | > 100 µM | > 100 µM | > 100 µM | > 100 µM | > 100 µM | > 55.8 µM | > 100 µM | 79.3 µM | > 100 µM | 50 µM | > 100 µM | > 100 µM | > 100 µM | > 100 µM
3 | C/C(=N/NC(N)=S)C(CN(C)C)C(C1=C(O)c2ccccc2OC1)c1ccccc1 (centres undefined) | > 100 µM | > 100 µM | > 100 µM | > 100 µM | > 100 µM | > 100 µM | > 100 µM | > 100 µM | > 100 µM | > 100 µM | > 100 µM | > 100 µM | > 100 µM | > 100 µM | > 100 µM | > 100 µM | > 100 µM | > 100 µM
